Measurements taken from US6355799B1, “Substituted benzene compounds, process for their preparation, and herbicidal and defoliant compositions containing them” (ISK Americas Incorporated, priority 1997, dated 2002).

Columns and labels:
Type in all cases: in vivo
[1] = test system: upland rice (Oryza sp., var. Tebonnet, RICE); assay: Pre-emerge test, crop safety; details: rated 14 days after application, 0 = no damage, 100 = complete death
In short: (§1)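 Compounds in acetone were track-sprayed at 15-1000 g ai/ha (187 l/ha) on sandy loam pots: pre-emerge one day after seeding, post-emerge at 2-3 leaf stage with 0.25% v/v non-ionic surfactant. Phytotoxicity was rated 14 days later on a 0 (no damage) to 100 (complete death) scale.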

[2] = test system: field corn (Zea mays L., var. Dekalb 535, CORN); assay: Pre-emerge test, crop safety; details: rated 14 days after application, 0 = no damage, 100 = complete death
In short: as §1

[3] = test system: common ragweed (Ambrosia artemisizfolia L., AMBEL); assay: Pre-emerge test, greenhouse herbicide activity screening; details: rated 14 days after application, 0 = no damage, 100 = complete death
In short: (§2)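 Fourteen days after spraying, crop and weed injury was graded visually from 0, no effect, to 100, every plant dead. Test substances were dissolved in acetone and applied at 15–1000 g ai/ha with a flat-fan nozzle. Application was either pre-emergence, one day after sowing, or post-emergence at the 2–3 leaf stage.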

[4] = test system: green foxtail (Setaria viridis, SETVI); assay: as above; details: rated 14 days after application, 0 = no damage, 100 = complete death
In short: as §2

[5] = test system: ivyleaf morningglory (Ipomoea hederacea, IPOHE); assay: as above; details: rated 14 days after application, 0 = no damage, 100 = complete death
In short: as §2

[6] = test system: lambsquarters (Chenopodium album, CHEAL); assay: as above; details: rated 14 days after application, 0 = no damage, 100 = complete death
In short: as §2

[7] = test system: velvetleaf (Abutilon theophrasti, ABUTH); assay: as above; details: rated 14 days after application, 0 = no damage, 100 = complete death
In short: as §2

[8] = test system: sicklepod (Cassia obtusifolia, CASOB); assay: as above; details: rated 14 days after application, 0 = no damage, 100 = complete death
In short: as §2

[9] = test system: large crabgrass (Digitaria sanguinalis, DIGSA); assay: as above; details: rated 14 days after application, 0 = no damage, 100 = complete death
In short: as §2

[10] = test system: johnsongrass (Sorghum halepense, SORHA); assay: as above; details: rated 14 days after application, 0 = no damage, 100 = complete death
In short: as §2

[11] = test system: barnyardgrass (Echinochloa crus-galli, ECHCG); assay: as above; details: rated 14 days after application, 0 = no damage, 100 = complete death
In short: as §2

[12] = test system: upland rice (Oryza sp., var. Tebonnet, RICE); assay: Post-emerge test, crop safety; details: post-emerge, 14 days after application, rating scale 0-100
In short: as §2

[13] = test system: field corn (Zea mays L., var. Dekalb 535, CORN); assay: Post-emerge test, crop safety; details: post-emerge, 14 days after application, rating scale 0-100
In short: as §2

[14] = test system: redroot pigweed (Amaranthus retroflexus, AMARE); assay: Pre-emerge test, greenhouse herbicide activity screening; details: rated 14 days after application, 0 = no damage, 100 = complete death
In short: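 Plants grown in 10 cm pots of sandy loam mix received acetone-dissolved compounds through a moving flat-fan nozzle. Doses ranged from 15 to 1000 g ai/ha. Pre-emerge pots were seeded one day earlier, post-emerge pots 8–21 days earlier. Fourteen days on, each pot was graded 0–100 for damage.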

[15] = test system: common ragweed (Ambrosia artemisizfolia L., AMBEL); assay: Post-emerge test, greenhouse herbicide activity screening; details: post-emerge, 14 days after application, rating scale 0-100
In short: (§3)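 Each test used a mechanized track sprayer delivering 187 l/ha of acetone solution at 15–1000 g ai/ha. Post-emerge foliage at 2–3 leaves was treated with added 0.25% v/v non-ionic surfactant and bottom-watered only. Injury was assessed on day 14, where 100 means total kill.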

[16] = test system: green foxtail (Setaria viridis, SETVI); assay: as above; details: post-emerge, 14 days after application, rating scale 0-100
In short: as §3

[17] = test system: ivyleaf morningglory (Ipomoea hederacea, IPOHE); assay: as above; details: post-emerge, 14 days after application, rating scale 0-100
In short: as §3

[18] = test system: lambsquarters (Chenopodium album, CHEAL); assay: as above; details: post-emerge, 14 days after application, rating scale 0-100
In short: as §3

[19] = test system: velvetleaf (Abutilon theophrasti, ABUTH); assay: as above; details: post-emerge, 14 days after application, rating scale 0-100
In short: as §3

[20] = test system: sicklepod (Cassia obtusifolia, CASOB); assay: as above; details: post-emerge, 14 days after application, rating scale 0-100
In short: as §3

[21] = test system: redroot pigweed (Amaranthus retroflexus, AMARE); assay: as above; details: post-emerge, 14 days after application, rating scale 0-100
In short: as §3

[22] = test system: large crabgrass (Digitaria sanguinalis, DIGSA); assay: as above; details: post-emerge, 14 days after application, rating scale 0-100
In short: as §3

[23] = test system: johnsongrass (Sorghum halepense, SORHA); assay: as above; details: post-emerge, 14 days after application, rating scale 0-100
In short: as §3

[24] = test system: barnyardgrass (Echinochloa crus-galli, ECHCG); assay: as above; details: post-emerge, 14 days after application, rating scale 0-100
In short: as §3

COc1c(Cl)cc(F)c(-n2c(=O)cc(C(F)(F)F)n(C)c2=O)c1NC(=O)c1ccc(CCl)cc1 [2-36]
70: Pre-emerge Herbicidal Activity, phytotoxicity rating (0-100), CASOB ([8]; 250 g ai/ha)
10: Pre-emerge Herbicidal Activity, phytotoxicity rating (0-100), CASOB ([8]; 63 g ai/ha) | Pre-emerge Herbicidal Activity, phytotoxicity rating (0-100), ECHCG ([11]; 250 g ai/ha) | phytotoxicity rating CORN ([13]; 63 g ai/ha) | phytotoxicity rating SORHA ([23]; 63 g ai/ha) | phytotoxicity rating SORHA ([23]; 250 g ai/ha) | phytotoxicity rating ECHCG ([24]; 63 g ai/ha)
25: Pre-emerge Herbicidal Activity, phytotoxicity rating (0-100), SETVI ([4]; 63 g ai/ha) | phytotoxicity rating RICE ([12]; 63 g ai/ha)
0: Pre-emerge phytotoxicity rating (0-100), crop damage, RICE ([1]; 63 g ai/ha) | Pre-emerge phytotoxicity rating (0-100), crop damage, CORN ([2]; 63 g ai/ha) | Pre-emerge phytotoxicity rating (0-100), crop damage, CORN ([2]; 250 g ai/ha) | Pre-emerge Herbicidal Activity, phytotoxicity rating (0-100), AMBEL ([3]; 63 g ai/ha) | Pre-emerge Herbicidal Activity, phytotoxicity rating (0-100), IPOHE ([5]; 63 g ai/ha) | Pre-emerge Herbicidal Activity, phytotoxicity rating (0-100), DIGSA ([9]; 63 g ai/ha) | Pre-emerge Herbicidal Activity, phytotoxicity rating (0-100), SORHA ([10]; 63 g ai/ha) | Pre-emerge Herbicidal Activity, phytotoxicity rating (0-100), ECHCG ([11]; 63 g ai/ha) | phytotoxicity rating ECHCG ([24]; 250 g ai/ha)
60: Pre-emerge Herbicidal Activity, phytotoxicity rating (0-100), IPOHE ([5]; 250 g ai/ha) | phytotoxicity rating SETVI ([16]; 250 g ai/ha) | phytotoxicity rating CASOB ([20]; 63 g ai/ha) | phytotoxicity rating CASOB ([20]; 250 g ai/ha)
40: Pre-emerge phytotoxicity rating (0-100), crop damage, RICE ([1]; 250 g ai/ha) | phytotoxicity rating RICE ([12]; 250 g ai/ha)
95: phytotoxicity rating AMBEL ([15]; 250 g ai/ha) | phytotoxicity rating CHEAL ([18]; 63 g ai/ha)
80: phytotoxicity rating AMBEL ([15]; 63 g ai/ha)
50: phytotoxicity rating SETVI ([16]; 63 g ai/ha)
20: Pre-emerge Herbicidal Activity, phytotoxicity rating (0-100), SORHA ([10]; 250 g ai/ha) | phytotoxicity rating CORN ([13]; 250 g ai/ha) | phytotoxicity rating DIGSA ([22]; 63 g ai/ha) | phytotoxicity rating DIGSA ([22]; 250 g ai/ha)
90: Pre-emerge Herbicidal Activity, phytotoxicity rating (0-100), SETVI ([4]; 250 g ai/ha) | Pre-emerge Herbicidal Activity, phytotoxicity rating (0-100), CHEAL ([6]; 63 g ai/ha)
100: Pre-emerge Herbicidal Activity, phytotoxicity rating (0-100), CHEAL ([6]; 250 g ai/ha) | Pre-emerge Herbicidal Activity, phytotoxicity rating (0-100), ABUTH ([7]; 63 g ai/ha) | Pre-emerge Herbicidal Activity, phytotoxicity rating (0-100), ABUTH ([7]; 250 g ai/ha) | Pre-emerge Herbicidal Activity, phytotoxicity rating (0-100), AMARE ([14]; 63 g ai/ha) | Pre-emerge Herbicidal Activity, phytotoxicity rating (0-100), AMARE ([14]; 250 g ai/ha) | phytotoxicity rating IPOHE ([17]; 63 g ai/ha) | phytotoxicity rating IPOHE ([17]; 250 g ai/ha) | phytotoxicity rating CHEAL ([18]; 250 g ai/ha) | phytotoxicity rating ABUTH ([19]; 63 g ai/ha) | phytotoxicity rating ABUTH ([19]; 250 g ai/ha) | phytotoxicity rating AMARE ([21]; 63 g ai/ha) | phytotoxicity rating AMARE ([21]; 250 g ai/ha)
30: Pre-emerge Herbicidal Activity, phytotoxicity rating (0-100), AMBEL ([3]; 250 g ai/ha) | Pre-emerge Herbicidal Activity, phytotoxicity rating (0-100), DIGSA ([9]; 250 g ai/ha)
